Where two headings read alike, the source gives them in different places.
Columns and labels:
[1] = target: T1, UT-B (Homo sapiens, UniProt Q13336); test: RBC lysis assay, human RBCs; assay type: cell-based
T1 construct: a red blood cell (i.e., erythrocyte), which endogenously expresses the urea transporter UT-B; endogenous in cells; host or cells: human red blood cells (whole venous blood, single donor)
T1 sequence (Q13336 1-389): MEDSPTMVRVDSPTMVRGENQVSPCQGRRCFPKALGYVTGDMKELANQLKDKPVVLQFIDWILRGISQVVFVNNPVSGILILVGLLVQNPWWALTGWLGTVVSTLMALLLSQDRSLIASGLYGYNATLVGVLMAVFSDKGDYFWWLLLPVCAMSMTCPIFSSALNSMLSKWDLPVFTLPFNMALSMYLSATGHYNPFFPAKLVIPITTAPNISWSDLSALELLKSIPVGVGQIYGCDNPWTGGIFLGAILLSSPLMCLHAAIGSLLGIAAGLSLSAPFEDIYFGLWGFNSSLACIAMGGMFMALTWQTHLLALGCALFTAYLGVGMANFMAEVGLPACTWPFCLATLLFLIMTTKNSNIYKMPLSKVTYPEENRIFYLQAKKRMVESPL
Text: Vigorous mixing was achieved by repeated pipetting.

[2] = target: T2, rat UT-A1 (Rattus norvegicus, UniProt Q62668); test: UT-A1-facilitated urea flux across MDCK-UT-A1 cell layers; assay type: cell-based; conditions: for inhibition of rat UT-A1: 25 μM
T2 construct: expressed in transfected cells; host or cells: MDCK cells (gift of Dr. Jeffrey Sands, Emory University)
T2 sequence (Q62668 1-929): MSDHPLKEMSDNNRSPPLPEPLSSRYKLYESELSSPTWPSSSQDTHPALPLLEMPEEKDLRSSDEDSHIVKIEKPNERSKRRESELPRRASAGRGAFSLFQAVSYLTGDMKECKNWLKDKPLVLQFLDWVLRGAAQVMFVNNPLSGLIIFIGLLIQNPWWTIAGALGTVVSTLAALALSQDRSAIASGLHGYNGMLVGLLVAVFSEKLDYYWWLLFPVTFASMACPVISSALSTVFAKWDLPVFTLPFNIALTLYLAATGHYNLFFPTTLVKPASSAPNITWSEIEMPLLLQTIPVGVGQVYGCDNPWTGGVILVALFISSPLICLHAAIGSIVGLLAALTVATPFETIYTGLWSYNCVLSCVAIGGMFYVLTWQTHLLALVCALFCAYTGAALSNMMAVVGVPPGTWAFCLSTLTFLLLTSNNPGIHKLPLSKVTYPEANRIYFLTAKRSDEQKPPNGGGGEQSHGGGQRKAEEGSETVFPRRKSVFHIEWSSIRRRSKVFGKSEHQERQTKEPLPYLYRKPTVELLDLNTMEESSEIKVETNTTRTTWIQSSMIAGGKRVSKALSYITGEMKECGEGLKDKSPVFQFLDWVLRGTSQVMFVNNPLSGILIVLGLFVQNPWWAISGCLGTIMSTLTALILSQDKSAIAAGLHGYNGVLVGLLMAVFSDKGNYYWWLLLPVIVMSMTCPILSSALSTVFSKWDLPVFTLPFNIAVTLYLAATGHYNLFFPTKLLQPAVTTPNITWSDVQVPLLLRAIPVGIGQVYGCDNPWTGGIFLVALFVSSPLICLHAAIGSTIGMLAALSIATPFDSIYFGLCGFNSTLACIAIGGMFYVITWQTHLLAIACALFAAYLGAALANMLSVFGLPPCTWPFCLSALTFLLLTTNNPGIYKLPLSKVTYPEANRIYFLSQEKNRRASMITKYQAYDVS
Experimental: Concentration-inhibition studies were performed to study the effect of the active mouse UT-B inhibitors on urea transport by UT-A. The amino acid sequences of UT-B and UT-A urea transporter isoforms share significant similarity. The cells used in these studies were MDCK cells that expressed rat UT-A1. MDCK-UT-A1-expressing cells were grown on collagen-coated porous filters until they were electrically tight, at which point 15 mM urea was introduced into buffer bathing the basolateral cell surface.
MDCK cells stably transfected with rat UT-A1 (MDCK-UT-A1) (Fröhlich et al., Am J Physiol. in press; Fröhlich et al., Am. J. Physiol. Cell Physiol. 286:C1264-70 (2004). Epub on Jan. 28, 2004) were generously provided by Dr. Jeffrey Sands (Emory University School of Medicine, Atlanta, Ga.). Cells were grown in Dulbecco's Modified Eagle Medium (DMEM) with bicarbonate and supplemented with 10% fetal bovine serum (FBS), 25 mM HEPES buffer, penicillin G (100 U/mL), streptomycin (100 μg/mL) and hygromycin (500 μg/mL). For determining urea flux, cells were grown on 12-mm collagen-coated TRANSWELL inserts (0.4 μm pore size; Costar) as described (Fröhlich et al., Am J Physiol. in press; Fröhlich et al., 2004, supra). The TRANSWELL inserts were incubated in hygromycin-free medium for 1 hr in a 5% CO2 tissue culture incubator (37° C.), and then 2×10^5 cells/cm^2 were loaded onto each insert. Cells were used after culturing the cells for 4 days in hygromycin-free medium, at which time they formed tight monolayers (transepithelial resistance 500-600 Ω·cm^2).
UT-A1-facilitated urea flux in the basolateral-to-apical direction across unstimulated and forskolin-stimulated MDCK-UT-A1 cell layers was measured in response to a 15-mM urea gradient. Experiments were carried out in 12-well plates in which PBS, containing either DMSO vehicle or forskolin, with or without UT-B inhibitor, added to both the apical-facing (0.2 mL) and basal-facing (1 mL) surfaces of cells on the porous filters. Cultures were incubated in the absence of urea for 30 min at 37° C. Then, the basal-facing solution was replaced with PBS (containing same components) with 15 mM urea. Five μL samples of apical fluid were collected at specified times during incubation at 37° C., and urea concentration was determined using a commercial kit based on chromogenic urea complexation at 520-nm wavelength (Quantichrom™ Urea Assay Kit, BioAssay Systems, Hayward, Calif.). Forskolin (10 μM), with or without UT-B transport inhibitors, was added from 1000× DMSO stock solutions (0.2% final DMSO content). Inhibition of UT-A1-mediated transport was defined as % inhibition=100% (Aforsk−Atest)/(Aforsk−Aphlor). Aforsk, and Aphlor were averaged absorbance values (at 520 nm) for cultures treated with forskolin and forskolin+phloretin, respectively, and Atest were values from cultures treated with forskolin+test compound.

[3] = system: RBCs from wild-type mice; test: Osmotic water permeability, RBCs from wild-type mice; assay type: cell-based, mouse
Experimental: FIGS. 8A-B illustrate UT-B-facilitated water transport by ‘chemical UT-B knock-out’. Osmotic water permeability was measured from the time course of RBC volume in response to a 250-mM inwardly directed sucrose gradient. FIG. 8A presents representative traces of mouse RBC water permeability performed at 10° C., with genotypes and conditions indicated. Inhibitors ureainh-201 and ureainh-302 were used at 25 μM. FIG. 8B presents osmotic water permeability coefficients (Pf) from experiments as illustrated in FIG. 8A (±SE, 3-7 curves per group of RBCs pooled from 4 mice per genotype). *, P<0.01 compared with no inhibitor; #, P<0.01 compared with wild-type (no inhibitor).
RBC urea and water permeabilities were assayed by stopped-flow light scattering using a Hi-Tech Sf-51 instrument (Wiltshire, UK). For measurement of urea permeability, dilutions of whole blood (human or mouse; see Example 1) in PBS (hematocrit: approximately 0.5%) were incubated with test compounds for 5 min and then subjected to a 250-mM inwardly directed gradient of urea. After an initial osmotic shrinking phase, the kinetics of increasing cell volume caused by urea influx were measured as the time-course of 90° scattered light intensity at 530 nm, with increasing cell volume resulting in reduced scattered light intensity. As a positive control, 0.7 mM phloretin was added to the RBC suspension prior to stopped-flow experiments. Measurements of water permeability were carried out similarly, with sucrose (cell-impermeant) used instead of urea to establish a 250-mM osmotic gradient. As a positive control, HgCl2 (0.3 mM) was added to the RBC suspension prior to stopped-flow measurements. Osmotic water permeability coefficients (Pf) were computed from light scattering data as described (van Hoek et al., J Biol Chem. 267:18267-69 (1992)).
This example describes chemical knock-out of UT-B by UT-B inhibitors in RBCs and the effect on UT-B-facilitated Water transport. […] Osmotic water permeability was measured by stopped-flow light scattering in RBCs from wild-type and AQP1-null mice as shown in FIG. 8A. […] AQP1-null RBCs had greater than 5-fold reduced Pf compared to wild-type RBCs.

[4] = system: UT; conditions: non-specific membrane intercalating agent; cited from earlier work
[5] = lysis assay, FIG. 5B, read-out: apparent EC50
[6] = Table 2, read-out: EC50 (μM), UT-B inhibitory potency

EC50 [1, 6] [µM] | SMILES | other results
 | COc1cc(OC)cc(S(=O)(=O)Nc2cc(OC)ccc2OC)c1 [ureainh-201, N-(2,5-dimethoxyphenyl)-3,5-dimethoxybenzene sulfonamide] | EC50 [1, 5]: 0.3 µM; inhibition of rat UT-A1 [2]: Neither ureainh-201 at 25 μM nor ureainh-404 at 25 μM significantly inhibited
 | O=C(CCc1ccc(O)cc1)c1c(O)cc(O)cc1O [phloretin, reference compound] | UT-A1-facilitated urea transport ([2]; phloretin 0.7 mM, forskolin-stimulated): inhibited; reduction in Pf ([3]; 0.7 mM): small but significant reduction; effect on water transport ([3]; inhibitors 25 μM, phloretin 0.7 mM, 10° C.): little effect on water transport; concentration exhibiting activity [4]: > 0.5 mM
10 | O=S(=O)(Nc1ccc2c(c1)OCCO2)c1ccc2ccccc2c1 [ureainh-213, N-(2,3-dihydrobenzo[b][1,4]dioxin-6-yl)naphthalene-2-sulfonamide] | 
4 | Cc1cc(C)cc(S(=O)(=O)Nc2ccc3c(c2)OCCO3)c1 [ureainh-208, N-(2,3-dihydrobenzo [b][1,4]dioxin-6-yl)-3,5-dimethylbenzenesulfonamide] | 
 | CCn1c(NCc2cc(Br)ccc2O)nc2ccccc21 [ureainh-404] | EC50 [1, 5]: 0.4 µM; inhibition of rat UT-A1 [2]: Neither ureainh-201 at 25 μM nor ureainh-404 at 25 μM significantly inhibited
6 | COc1cccc(S(=O)(=O)Nc2ccc3c(c2)OCCO3)c1 [ureainh-209, N-(2,3-dihydrobenzo [b][1,4]dioxin-6-yl)-3-Methoxybenzenesulfonamide] | 
0.4 | COc1ccc(OC)c(NS(=O)(=O)c2ccc(Br)cc2)c1 [ureainh-202, 4-bromo-N-(2,5-dimethoxyphenyl) benzenesulfonamide] | 
2 | NC(=O)c1ccc(S(=O)(=O)Nc2ccc3c(c2)OCCO3)cc1 [ureainh-207, 4-(N-(2,3-dihydrobenzo [b][1,4]dioxin-6-yl)sulfamoyl)benzamide] | 
6 | CC(=O)c1cccc(S(=O)(=O)Nc2ccc3c(c2)OCCO3)c1 [ureainh-210, 3-acetyl-N-(2,3-dihydrobenzo [b][1,4]dioxin-6-yl) Benzenesulfonamide] | 
4 | Cn1c(=O)oc2cc(NS(=O)(=O)c3cccc(C(F)(F)F)c3)ccc21 [ureainh-217, N-(3-methyl-2-oxo-2,3-dihydrobenzo[d]oxazol-6-yl)-3-(trifluoromethyl) Benzenesulfonamide] | 
0.7 | COc1ccc(OC)c(NS(=O)(=O)c2cccc(Br)c2)c1 [ureainh-203, 3-bromo-N-(2,5-dimethoxyphenyl) benzenesulfonamide] | 
10 | Cc1ccc(S(=O)(=O)Nc2ccc3c(c2)OCCO3)cc1C [ureainh-212, N-(2,3-dihydrobenzo[b][1,4]dioxin-6-yl)-3,4-dimethylbenzenesulfonamide] | 
8 | O=S(=O)(Nc1ccc2c(c1)OCCO2)c1cccc(Br)c1 [ureainh-211, 3-bromo-N-(2,3-dihydrobenzo[b][1,4]dioxin-6-y])benzenesulfonamide] | 
